{"source": "patent EP1306084A1", "about": "“Compositions for the control of parasitic infestations in fish” (Alpharma AS, priority 1998, dated 1999)", "key": {"[1]": {"test_system": "sea lice", "test": "Field trial: medicated feed before sea transfer, recapture of tagged fish, sea lice infection (Example 3)", "type": "in vivo, wild sea trout (Salmo trutta)", "details": "about 3 mg per fish per day for six days in feed before sea transfer; 13 treated fish caught June 20 to August 7", "method": "(§1) About 2,000 wild sea trout (Salmo trutta) were divided into two groups and marked with Carlin tags in two different colours (yellow or red) so that individuals of the groups could easily be distinguished from each other when observed in the water. The group with yellow Carlin tags were given feed containing hexaflumuron. The dose was about 3 mg of hexaflumuron per fish per day for six days. The feeding was done the last week before they were transferred to the sea in the beginning of May. The control group had red Carlin tags and was fed ordinary fish feed until sea transfer. Both groups of fish were transferred to the sea 200 metres from the river mouth of the Bondhus River in Hordaland in Norway. From sea transfer (May 8) until August 7, neighbouring rivers and estuaries round these rivers were examined every week, using fishing by application of high voltage and net fishing.\nTagged fish was not caught until June 20. From June 20 to August 7, 22 control fish and 13 treated fish were caught. The untreated fish were caught in the lower parts of the rivers and were heavily infected with sea lice. The 13 treated fish were exclusively caught in the estuary around the rivers (in sea water), none were caught in freshwater."}, "[2]": {"test": "Field trial: weight and length of recaptured tagged fish (Example 3)", "type": "in vivo, wild sea trout (Salmo trutta)", "details": "treated fish caught June 20 to August 7", "method": "as §1\nThe following average lengths and weights were recorded for the fish that were caught during the period: • Control fish: Average weight 50.4 ± 48.8 grams. Average length 19.7 ± 13.3 cm. • Treated fish: Average weight 87.1 ± 69.6 grams. Average length 35.9 ± 19.1 cm."}, "[3]": {"test_system": "sea lice", "test": "Injection of 9 active substances, protective effect against sea lice (Example 8)", "type": "in vivo, salmon smolt", "details": "for lice on average: T3, 70 days after injection, about 50 mg/kg, control group 5.6", "method": "The treatment dosage was 9 mg hexaflumuron per kg fish per day for 10 days. This is indicated by \"Groups/Timepoints\" in the figure; • Figure 2 relates to the trial in Example 2 that was carried out on Atlantic salmon (Salmo salar). […] The treatment dosage varied between 3 - 9 mg hexaflumuron and 9- 12 mg fluazuron per kg fish per day for 7 days. This is indicated by \"Groups/Timepoints\" in the diagram. […] The treated groups are compared to an untreated control group. The treatment dosage was 4 mg hexaflumuron per kg fish per day for 5 days. This is indicated by \"Groups/Timepoints\" in the figure. Cage 2 = controls, Cage 4-6 = treated groups, 16.6.97 = time point for sea transfer and 5.8.97= controls treated by bathing with deltamethrin; • Figure 4 relates to the trial described in Example 5, which was carried out on sea trout (Salmo trutta). […] The treated groups are compared with an untreated control group. The dosage for oral treatment was 4 mg hexaflumuron per kilo fish per day for 5 days, and 5 ppm hexaflumuron as a 30 minute bath treatment. This is indicated by \"Groups/Timepoints\" in the figure. Cage 1.4 = Controls, cage 1.3 = Oral treatment, cage 1.2 = Bath treatment. […] The treated groups are compared with an untreated control group, and one group that has been treated orally with teflubenzuron (10 mg/kg of teflubenzuron per kg fish per day for 7 days). The dosage for oral treatment was 5.6 mg hexaflumuron per kg fish per day for 7 days, and 5 ppm hexaflumuron as a 30 minute bath treatment. […] End of treatment: 22.10.97, Sea transfer: 23.10.97. T1 = 3 weeks post end of treatment, T2 = 5 weeks post end of treatment, T3 = 9 weeks post end of treatment, T4 = 12 weeks post end of treatment; • Figure 6 relates to the trial in Example 6 at time points 4-6, with the same trial parameters as for Figure 5. T5 = 15 weeks post end of treatment, T6 = 17 weeks post end of treatment. Cage 3 and 4 were treated by bath with deltamethrin after sea lice counting at T4 (12.01.98); • Figure 7 relates to the trial described in Example 7 where salmon were injected on 17.12.97 with two formulations (groups L and R, respectively) of hexaflumuron and a vaccine formulation without hexaflumuron (control). […] The vaccinated fish was transferred to sea water on 09.01.98; • Figure 8 summarises the trial of Example 8 where salmon smolts were injected with 9 different active substances on 08.07.98. Only results for Moxidectin (Mox.), Lufenuron (Luf.) and hexaflumuron in Apoject 1-Fural (Hex.Apo) and in animal oil (Hex.oil) are shown, and • Figure 9 summarises the trial described in Example 10 where salmon were injected on 03.12.97 with 3 different formulations of hexaflumuron (Hexa 1, Hexa 2 and Hexa 3). The fish were transferred to sea water at T0.\nIn this trial 9 different active substances were tested for protective effect against sea lice. 1,200 salmon smolt were, prior the start of the trial, vaccinated with a commercial vaccine, ALPHA JECT 5100.\nOne week after sea water transfer the salmon was divided into 12 groups and injected with different formulations of the 9 different active substances. In parallel with the 12 groups, a 13th group comprising 50 fish of the same origin and size was injected with a saline (PBS) solution without active substance. This group served as negative control/reference group in respect of sea lice infestations. The groups were marked by fin cutting and distributed randomly into 3 cages.\nThe active substances that were used as injection were hexaflumuron, buprofezin, diflubenzuron, fluazuron, lufenuron, ivermectin, doramectin, moxidectin and milbemycin oxime, respectively. All the fish were injected with 0.2 ml of the various injection formulations. Hexaflumuron, buprofezin, fluazuron, lufenuron and diflubenzuron were administered at a dosage of about 50 mg/kg whereas ivermectin, doramectin and moxidectin were administered at a dosage of 0.2 mg/kg (recommended dosage for mammals). […]"}, "[4]": {"test_system": "sea lice", "test": "Injection of hexaflumuron in multivalent vaccine formulations, sea lice counts after sea water transfer (Example 10)", "type": "in vivo, salmon (Salmo salar)", "method": "The treatment dosage was 9 mg hexaflumuron per kg fish per day for 10 days. This is indicated by \"Groups/Timepoints\" in the figure; • Figure 2 relates to the trial in Example 2 that was carried out on Atlantic salmon (Salmo salar). […] The treatment dosage varied between 3 - 9 mg hexaflumuron and 9- 12 mg fluazuron per kg fish per day for 7 days. This is indicated by \"Groups/Timepoints\" in the diagram. […] The treated groups are compared to an untreated control group. The treatment dosage was 4 mg hexaflumuron per kg fish per day for 5 days. This is indicated by \"Groups/Timepoints\" in the figure. Cage 2 = controls, Cage 4-6 = treated groups, 16.6.97 = time point for sea transfer and 5.8.97= controls treated by bathing with deltamethrin; • Figure 4 relates to the trial described in Example 5, which was carried out on sea trout (Salmo trutta). […] The treated groups are compared with an untreated control group. The dosage for oral treatment was 4 mg hexaflumuron per kilo fish per day for 5 days, and 5 ppm hexaflumuron as a 30 minute bath treatment. This is indicated by \"Groups/Timepoints\" in the figure. Cage 1.4 = Controls, cage 1.3 = Oral treatment, cage 1.2 = Bath treatment. […] The treated groups are compared with an untreated control group, and one group that has been treated orally with teflubenzuron (10 mg/kg of teflubenzuron per kg fish per day for 7 days). The dosage for oral treatment was 5.6 mg hexaflumuron per kg fish per day for 7 days, and 5 ppm hexaflumuron as a 30 minute bath treatment. […] End of treatment: 22.10.97, Sea transfer: 23.10.97. T1 = 3 weeks post end of treatment, T2 = 5 weeks post end of treatment, T3 = 9 weeks post end of treatment, T4 = 12 weeks post end of treatment; • Figure 6 relates to the trial in Example 6 at time points 4-6, with the same trial parameters as for Figure 5. […]\nFollowing transfer to sea water, the fish were exposed to natural sea lice infestation. Every three weeks lice were counted on 10 fish of each group to assess if the number of lice between the various groups differed. […]"}, "[5]": {"details": "injected in vaccine formulations"}}}
{"smiles": "O=C(NC(=O)c1c(F)cccc1F)Nc1cc(Cl)c(OC(F)(F)C(F)F)c(Cl)c1", "note": "[hexaflumuron]", "values": [{"measurement": "signs of sea lice infections in recaptured fish", "setting": "[1]", "result": "None of the treated fish showed signs of sea lice infections"}, {"measurement": "Average length", "setting": "[2]; control fish 19.7 ± 13.3", "result": "35.9 ± 19.1", "unit": "cm"}, {"measurement": "Average weight", "setting": "[2]; control fish 50.4 ± 48.8", "result": "87.1 ± 69.6", "unit": "grams"}, {"measurement": "protection against sea lice", "setting": "[3]; T2, 40 days after injection, hexaflumuron, lufenuron about 50 mg/kg, moxidectin 0.2 mg/kg", "result": "showed protection"}, {"measurement": "lice on average", "setting": "[3]; formulated in Apoject 1-Fural", "result": 0}, {"measurement": "lice on average", "setting": "[3]; formulated in animal oil", "result": 0.8}, {"measurement": "protection against sea lice", "setting": "[3]; T3, hexaflumuron in an aqueous suspension (PBS)", "result": "no protection"}, {"measurement": "number of sea lice versus control group", "setting": "[3]; T8 (218 days after injection), hexaflumuron in Apoject 1-Fural, animal oil", "result": "significantly lower"}, {"measurement": "significant protection against sea lice until and including T10, time after injection", "setting": "[3]; hexaflumuron formulated in Apoject 1-Fural or in animal oil", "result": 9, "unit": "months"}, {"measurement": "prophylactic effect against sea lice", "setting": "[3]; two groups of fish injected with hexaflumuron", "result": "≤ 10", "unit": "months"}, {"measurement": "number of sea lice versus control", "setting": "[4]; 9 and 12 weeks after sea water transfer (T3 and T4), 3 formulations, 25 mg per ml vaccine", "result": "significantly lower"}, {"measurement": "protection against recurrent infestation after injection", "setting": "[4]; [5]", "result": "≥ 18", "unit": "weeks"}, {"measurement": "protection against recurrent infestation after sea water transfer", "setting": "[4]; [5]", "result": "at least 12 weeks"}]}
